Source: patent US20210363486A1, “CARDIOMYOCYTE PROLIFERATION PROMOTING AGENT AND USE THEREOF” (KYOTO UNIVERSITY, priority 2018, published 2021)

Columns and labels:
[1] = test system: iPS cell-derived cardiomyocytes; assay: Screening for cardiomyocyte proliferation agent based on cell cycle activation (Fucci green fluorescence and cell number); parameters: species or system human; settings: compounds administered on day 22 after differentiation induction, evaluated on day 25; 384-well plate, 2500 cells per well
Text: The Fucci gene (Cell. 2008 Feb. 8; 132 (3): 487-98.) was constitutively expressed under the CAG promoter using the PiggyBac transposon vector system (System Biosciences) in a healthy human-derived iPS cell line.
The Fucci gene-introduced iPS cell line was induced to differentiate into cardiomyocytes by the embryoid body method described in Funakoshi, S. et al. Sci Rep 8, 19111 […], cardiomyocytes were extracted using a cell sorter on day 20 after induction, and then seeded into a 384-well plate at 2500 cells per well.
On day 22 after differentiation induction, about 4000 types of compounds were administered, and on day 25, the reactivity of the proliferative capacity of iPS cell-derived cardiomyocytes to the drugs was evaluated based on the intensity of Fucci's green fluorescence and the number of cells.
The Fucci reporter emits orange fluorescence in the G1/G0 phase and green fluorescence in the S/G2/M phase of the cell cycle. Since the cell cycle of undifferentiated human iPS cells is activated, most cells emit green fluorescence. However, when these iPS cells are differentiated into cardiomyocytes, the cell cycle usually stops and most cells turn red.

[2] = test system: cardiomyocytes on day 18 of differentiation induction; assay: Flow cytometry of Fucci green fluorescent cardiomyocytes after AM80 administration; type: cell-based, human; settings: 1 μM, flow cytometry 48 hours later; vs Control (DMSO); FIG. 1 and FIG. 2
Experimental: 1 μM AM80 was administered to cardiomyocytes on day 18 of differentiation induction and then analysis was conducted by flow cytometry 48 hours later.

[3] = test system: myocardial infarction model immunodeficient mouse (NRG mouse); assay: Engraftment efficiency of transplanted cardiomyocytes by in vivo optical imaging (IVIS); settings: cardiomyocytes treated with 1 μM for 48 hours from day 18, intramyocardial injection; compared to DMSO treatment group; FIG. 4
Experimental: Cardiomyocytes were induced to differentiate from iPS cells (Funakoshi, S. et al. Sci Rep 8, 19111 (2016)) derived from a healthy individual, which constantly express luciferase, by the method described in this document. The cardiomyocytes were treated with AM80 (1 μM) for 48 hours from day 18 after differentiation induction. Cardiomyocytes were extracted by flow cytometry, and then transplanted (1000,000 cells) into a myocardial infarction model immunodeficient mouse (NRG mouse with the left anterior descending coronary artery ligated) by intramyocardial injection.

[4] = test system: human iPS cell-derived cardiomyocytes; assay: EdU assay cell proliferation analysis; type: cell-based; settings: 1 μM for 48 hours from day 18; compared to control group (DMSO-treated group); FIG. 3
Experimental: Further, human iPS cell-derived cardiomyocytes on day 18 after differentiation induction were treated with AM80 (1 μM) for 48 hours, and cell proliferation analysis was performed using EdU assay. […] For the EdU assay, Click-it EdU Pacific Blue flow cytometry assay kit, catalog number C10418 (Invitrogen) was used.

Structure (SMILES) | proliferation and cell division of iPS cell-derived cardiomyocytes (Fucci's green fluorescence intensity and number of cells) [1] | also measured
O=C1NC(=O)C(=Cc2ccc(-c3ccc(F)cc3)o2)S1 (stereo in doubt) [CAY10505] | promote the proliferation and cell division | –
Cc1ccccc1C(C(=O)NC1CCCCC1)N(C(=O)Cn1ccnc1C)c1cccc(F)c1 (centres unmarked) [AGI5198, N-[2-(cyclohexylamino)-1-(2-methylphenyl)-2-oxoethyl]-N-(3-fluorophenyl)-2-methyl-1H-imidazole-1-acetamide] | promote the proliferation and cell division | –
CC1(C)CCC(C)(C)c2cc(NC(=O)c3ccc(C(=O)O)cc3)ccc21 [AM80] | promote the proliferation and cell division | green fluorescent cells (activation of cell cycle) [2]: significant increase; engraftment efficiency of transplanted cardiomyocytes [3]: significant improvement; cell proliferation activity (EdU assay) [4]: significant increase
CC1(C)CCC(C)(C)c2cc(C(=O)Nc3ccc(C(=O)O)cc3)ccc21 [AM580] | promote the proliferation and cell division | –
CC1=C(/C=C/C(C)=C/C=C/C(C)=C/C(=O)O)C(C)(C)CCC1 [All trans retinoic acid] | promote the proliferation and cell division | –
O=C(O)c1ccc2cc(-c3ccc(O)c(C45CC6CC(CC(C6)C4)C5)c3)ccc2c1 [CD437] | promote the proliferation and cell division | –
CC(C)(C)c1cc(C(=O)/C=C/c2ccc(C(=O)O)cc2)cc(C(C)(C)C)c1 [CH55] | promote the proliferation and cell division | –
CC(C)(C)NS(=O)(=O)c1cncc(-c2cc(F)c3nc(N)nn3c2)c1 [CZC24832] | promote the proliferation and cell division | –
